Experiments:
Type in all cases: in vivo
[1] = system: barnyardgrass (Echinochloa crus-galli); test: Test C greenhouse herbicide test, pre- and postemergence
In short: (§1)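 Visual 0–100 injury score (100 = complete control) taken against untreated controls after 13–15 d in greenhouse. Test chemicals, formulated in solvent plus surfactant, applied preemergence to seeds in loam–sand soil or postemergence to 1- to 4-leaf plants (2–18 cm).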

[2] = system: blackgrass (Alopecurus myosuroides); test: as above
In short: as §1

[3] = system: corn (Zea mays); test: as above
In short: as §1

[4] = system: crabgrass, large (large crabgrass, Digitaria sanguinalis); test: as above
In short: as §1

[5] = system: foxtail, giant (giant foxtail, Setaria faberii); test: as above
In short: as §1

[6] = system: galium (catchweed bedstraw, Galium aparine); test: as above
In short: as §1

[7] = system: johnsongrass (Sorghum halepense); test: as above
In short: as §1

[8] = system: morningglory (Ipomoea coccinea); test: as above
In short: as §1

[9] = system: oilseed rape (Brassica napus); test: as above
In short: as §1

[10] = system: pigweed (Amaranthus retroflexus); test: as above
In short: as §1

[11] = system: ragweed (common ragweed, Ambrosia elatior); test: as above
In short: as §1

[12] = system: soybean (Glycine max); test: as above
In short: as §1

[13] = system: velvetleaf (Abutilon theophrasti); test: as above
In short: as §1

[14] = system: waterhemp (common waterhemp, Amaranthus rudis); test: as above
In short: as §1

[15] = system: wheat (winter wheat, Triticum aestivum); test: as above
In short: as §1

[16] = system: kochia (Kochia scoparia); test: Test C greenhouse herbicide test, postemergence; conditions: for Plant response rating, Kochia: Postemergence
In short: (§2)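 Greenhouse postemergence spray on plants 2–18 cm tall; response judged visually after 13–15 d relative to untreated controls using a 0 (none) to 100 (full control) scale.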

[17] = system: oat, wild (wild oat, Avena fatua); test: Test C greenhouse herbicide test, postemergence; conditions: for Plant response rating, Oat, Wild: Postemergence
In short: as §2

[18] = Postemergence, 31 g ai/ha, 0 to 100 scale (0 no effect, 100 complete control)
[19] = Postemergence, 125 g ai/ha, scale 0 to 100, 0 is no effect, 100 is complete control
[20] = Postemergence, 250 g ai/ha, scale 0 to 100, 0 no effect, 100 complete control, 13 to 15 d
[21] = Preemergence, 31 g ai/ha, scale 0 to 100, 0 is no effect, 100 is complete control
[22] = Preemergence, 62 g ai/ha, scale 0 to 100, 0 is no effect, 100 is complete control
[23] = Preemergence, 125 g ai/ha, scale 0 to 100, 0 is no effect, 100 is complete control
[24] = Preemergence, 250 g ai/ha, scale 0 to 100 (0 no effect, 100 complete control)
[25] = postemergence, 62 g ai/ha, scale 0 to 100, 0 no effect, 100 complete control
[26] = 125 g ai/ha, scale 0 to 100, 0 is no effect, 100 is complete control
[27] = 250 g ai/ha, scale 0 to 100, 0 no effect, 100 complete control, 13 to 15 d

COC(=O)Oc1c(C)nn(C)c(=O)c1-c1c(C)sc2c(C)cc(C)cc12 [Compound 81]
98: Barnyardgrass plant response rating [1, 24] | Crabgrass, Large plant response rating [4, 24] | Plant response rating, Foxtail, Giant [5, 22] | Plant response rating, Foxtail, Giant [5, 23] | Johnsongrass plant response rating [7, 24] | Plant response rating, Morningglory [8, 20] | Plant response rating, Pigweed [10, 21] | Ragweed plant response rating [11, 24] | Velvetleaf plant response rating [13, 24]
85: Blackgrass plant response rating [2, 25] | Foxtail, Giant plant response rating [5, 25] | Plant response rating, Morningglory [8, 22] | Plant response rating, Oilseed Rape [9, 19] | Plant response rating, Pigweed [10, 19] | Pigweed plant response rating [10, 25] | Plant response rating, Ragweed [11, 20] | Plant response rating, Ragweed [11, 21] | Plant response rating, Velvetleaf [13, 23] | Velvetleaf plant response rating [13, 25] | Plant response rating, Waterhemp [14, 19] | Plant response rating, Waterhemp [14, 21] | Plant response rating, Waterhemp [14, 22]
60: Plant response rating, Barnyardgrass [1, 20] | Blackgrass plant response rating [2, 18] | Plant response rating, Blackgrass [2, 21] | Waterhemp plant response rating [14, 25]
35: Plant response rating, Barnyardgrass [1, 19] | Barnyardgrass plant response rating [1, 25] | Crabgrass, Large plant response rating [4, 25] | Plant response rating, Velvetleaf [13, 21]
30: Plant response rating, Barnyardgrass [1, 21] | Corn plant response rating [3, 24]
95: Plant response rating, Galium [6, 19] | Plant response rating, Galium [6, 20] | Plant response rating, Galium [6, 22] | Plant response rating, Galium [6, 23] | Galium plant response rating [6, 24] | Galium plant response rating [6, 25] | Morningglory plant response rating [8, 24] | Oilseed Rape plant response rating [9, 24] | Plant response rating, Pigweed [10, 22] | Plant response rating, Pigweed [10, 23] | Plant response rating, Ragweed [11, 22] | Plant response rating, Ragweed [11, 23] | Plant response rating, Oat, Wild [17, 26] | Plant response rating, Oat, Wild [17, 27]
55: Plant response rating, Crabgrass, Large [4, 20]
65: Oilseed Rape plant response rating [9, 25] | Plant response rating, Velvetleaf [13, 22]
70: Plant response rating, Barnyardgrass [1, 22] | Plant response rating, Johnsongrass [7, 20] | Plant response rating, Ragweed [11, 19]
40: Plant response rating, Crabgrass, Large [4, 19] | Plant response rating, Oilseed Rape [9, 23]
75: Plant response rating, Crabgrass, Large [4, 22] | Ragweed plant response rating [11, 25] | Kochia plant response rating [16, 25]
45: Plant response rating, Johnsongrass [7, 23] | Plant response rating, Oilseed Rape [9, 20]
25: Barnyardgrass plant response rating [1, 18] | Plant response rating, Johnsongrass [7, 21]
100: Foxtail, Giant plant response rating [5, 24] | Plant response rating, Morningglory [8, 19] | Morningglory plant response rating [8, 25] | Pigweed plant response rating [10, 24] | Plant response rating, Soybean [12, 22] | Waterhemp plant response rating [14, 24]
0: Corn plant response rating [3, 18] | Plant response rating, Corn [3, 20] | Plant response rating, Corn [3, 21] | Plant response rating, Oilseed Rape [9, 21] | Plant response rating, Soybean [12, 20] | Plant response rating, Soybean [12, 21] | Plant response rating, Soybean [12, 23] | Soybean plant response rating [12, 24] | Soybean plant response rating [12, 25] | Plant response rating, Wheat [15, 19] | Plant response rating, Wheat [15, 20] | Plant response rating, Wheat [15, 21] | Plant response rating, Wheat [15, 22] | Plant response rating, Wheat [15, 23] | Wheat plant response rating [15, 24] | Wheat plant response rating [15, 25]
5: Corn plant response rating [3, 25] | Plant response rating, Johnsongrass [7, 19] | Plant response rating, Johnsongrass [7, 22] | Johnsongrass plant response rating [7, 25] | Plant response rating, Oilseed Rape [9, 22] | Plant response rating, Soybean [12, 19]
80: Plant response rating, Barnyardgrass [1, 23] | Plant response rating, Blackgrass [2, 22] | Plant response rating, Foxtail, Giant [5, 21] | Plant response rating, Morningglory [8, 21] | Plant response rating, Waterhemp [14, 20] | Plant response rating, Kochia [16, 26] | Plant response rating, Kochia [16, 27]
10: Plant response rating, Corn [3, 19] | Plant response rating, Corn [3, 22]
90: Plant response rating, Blackgrass [2, 19] | Plant response rating, Blackgrass [2, 20] | Plant response rating, Blackgrass [2, 23] | Blackgrass plant response rating [2, 24] | Plant response rating, Crabgrass, Large [4, 21] | Plant response rating, Crabgrass, Large [4, 23] | Plant response rating, Foxtail, Giant [5, 19] | Plant response rating, Foxtail, Giant [5, 20] | Plant response rating, Galium [6, 21] | Plant response rating, Morningglory [8, 23] | Plant response rating, Pigweed [10, 20] | Plant response rating, Velvetleaf [13, 19] | Plant response rating, Velvetleaf [13, 20] | Plant response rating, Waterhemp [14, 23] | Oat, Wild plant response rating [17, 25]
20: Plant response rating, Corn [3, 23]

Source: patent publication US10597388B2, “Pyridazinone herbicides” (FMC CORPORATION, priority 2014, dated 2020)
